Legend:
Assay in all cases: KINOMEscan competition binding
Settings in all cases: compound 10.0 µM
[1] = biological target: ACVR1 (human) (UniProt Q04771)
[2] = biological target: ACVR2B (human) (UniProt Q13705)
[3] = biological target: ADCK4 (human) (UniProt Q96D53)
[4] = biological target: ANKK1 (human) (UniProt Q8NFD2)
[5] = biological target: AURKB (human) (UniProt Q96GD4)
[6] = biological target: CAMKK2 (human) (UniProt Q96RR4)
[7] = biological target: CDK14 (human) (UniProt O94921)
[8] = biological target: CDK16 (human) (UniProt Q00536)
[9] = biological target: CDK7 (human) (UniProt P50613)
[10] = biological target: CSNK1D (human) (UniProt P48730)
[11] = biological target: CSNK1G1 (human) (UniProt Q9HCP0)
[12] = biological target: DAPK1 (human) (UniProt P53355)
[13] = biological target: DCLK2 (human) (UniProt Q8N568)
[14] = biological target: EPHA8 (human) (UniProt P29322)
[15] = biological target: GSK3A (human) (UniProt P49840)
[16] = biological target: JAK2 JH1 catalytic (human) (UniProt O60674)
[17] = biological target: LATS1 (human) (UniProt O95835)
[18] = biological target: LYN (human) (UniProt P07948)
[19] = biological target: MAP3K11 (human) (UniProt Q16584)
[20] = biological target: MAP3K4 (human) (UniProt Q9Y6R4)
[21] = biological target: MLTK (human) (UniProt Q9NYL2)
[22] = biological target: MYO3A (human) (UniProt Q8NEV4)
[23] = biological target: NEK1 (human) (UniProt Q96PY6)
[24] = biological target: NEK9 (human) (UniProt Q8TD19)
[25] = biological target: NUAK1 (human) (UniProt O60285)
[26] = biological target: PAK2 (human) (UniProt Q13177)
[27] = biological target: PDGFRA (human) (UniProt P16234)
[28] = biological target: PHKG1 (human) (UniProt Q16816)
[29] = biological target: PHKG2 (human) (UniProt P15735)
[30] = biological target: PIK3CB (human) (UniProt P42338)
[31] = biological target: PLK1 (human) (UniProt P53350)
[32] = biological target: PRKACA (human) (UniProt P17612)
[33] = biological target: PTK2B (human) (UniProt Q14289)
[34] = biological target: RET (human) (UniProt P07949)
[35] = biological target: RIOK3 (human) (UniProt O14730)
[36] = biological target: RPS6KA6 KD2 (human) (UniProt Q9UK32)
[37] = biological target: STK25 (human) (UniProt O00506)
[38] = biological target: TGFBR1 (human) (UniProt P36897)
[39] = biological target: TLK2 (human) (UniProt Q86UE8)
[40] = biological target: ULK1 (human) (UniProt O75385)

Sequence of ACVR2B (human) (Q13705 whole entry, looked up): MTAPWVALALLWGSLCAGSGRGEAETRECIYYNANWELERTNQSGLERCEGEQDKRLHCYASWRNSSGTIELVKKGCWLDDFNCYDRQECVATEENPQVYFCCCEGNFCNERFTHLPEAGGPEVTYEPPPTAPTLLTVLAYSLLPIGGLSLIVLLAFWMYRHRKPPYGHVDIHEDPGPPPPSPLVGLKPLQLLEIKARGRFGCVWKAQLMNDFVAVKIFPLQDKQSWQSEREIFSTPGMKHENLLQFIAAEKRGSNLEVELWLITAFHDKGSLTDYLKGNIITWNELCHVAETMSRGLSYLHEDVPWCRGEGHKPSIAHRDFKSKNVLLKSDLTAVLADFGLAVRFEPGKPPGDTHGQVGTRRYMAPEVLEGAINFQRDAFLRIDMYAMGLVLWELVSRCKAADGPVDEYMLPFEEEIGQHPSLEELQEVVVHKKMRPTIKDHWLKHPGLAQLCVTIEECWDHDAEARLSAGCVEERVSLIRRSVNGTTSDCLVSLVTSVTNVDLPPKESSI
Sequence of ACVR1 (human) (Q04771 whole entry, looked up): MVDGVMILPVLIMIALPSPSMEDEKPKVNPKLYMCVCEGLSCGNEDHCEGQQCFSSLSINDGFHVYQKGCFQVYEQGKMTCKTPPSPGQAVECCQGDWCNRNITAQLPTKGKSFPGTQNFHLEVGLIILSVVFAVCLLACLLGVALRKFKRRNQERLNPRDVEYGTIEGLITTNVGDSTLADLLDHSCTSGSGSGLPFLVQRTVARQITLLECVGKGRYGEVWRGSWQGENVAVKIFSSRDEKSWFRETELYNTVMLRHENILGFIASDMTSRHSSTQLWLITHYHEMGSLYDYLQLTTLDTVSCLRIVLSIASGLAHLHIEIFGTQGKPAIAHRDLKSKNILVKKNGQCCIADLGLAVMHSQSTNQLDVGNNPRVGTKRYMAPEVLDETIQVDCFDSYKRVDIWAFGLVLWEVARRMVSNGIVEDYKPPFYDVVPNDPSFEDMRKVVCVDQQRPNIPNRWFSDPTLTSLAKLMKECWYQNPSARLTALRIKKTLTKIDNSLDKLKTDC
Sequence of PIK3CB (human) (P42338 whole entry, looked up): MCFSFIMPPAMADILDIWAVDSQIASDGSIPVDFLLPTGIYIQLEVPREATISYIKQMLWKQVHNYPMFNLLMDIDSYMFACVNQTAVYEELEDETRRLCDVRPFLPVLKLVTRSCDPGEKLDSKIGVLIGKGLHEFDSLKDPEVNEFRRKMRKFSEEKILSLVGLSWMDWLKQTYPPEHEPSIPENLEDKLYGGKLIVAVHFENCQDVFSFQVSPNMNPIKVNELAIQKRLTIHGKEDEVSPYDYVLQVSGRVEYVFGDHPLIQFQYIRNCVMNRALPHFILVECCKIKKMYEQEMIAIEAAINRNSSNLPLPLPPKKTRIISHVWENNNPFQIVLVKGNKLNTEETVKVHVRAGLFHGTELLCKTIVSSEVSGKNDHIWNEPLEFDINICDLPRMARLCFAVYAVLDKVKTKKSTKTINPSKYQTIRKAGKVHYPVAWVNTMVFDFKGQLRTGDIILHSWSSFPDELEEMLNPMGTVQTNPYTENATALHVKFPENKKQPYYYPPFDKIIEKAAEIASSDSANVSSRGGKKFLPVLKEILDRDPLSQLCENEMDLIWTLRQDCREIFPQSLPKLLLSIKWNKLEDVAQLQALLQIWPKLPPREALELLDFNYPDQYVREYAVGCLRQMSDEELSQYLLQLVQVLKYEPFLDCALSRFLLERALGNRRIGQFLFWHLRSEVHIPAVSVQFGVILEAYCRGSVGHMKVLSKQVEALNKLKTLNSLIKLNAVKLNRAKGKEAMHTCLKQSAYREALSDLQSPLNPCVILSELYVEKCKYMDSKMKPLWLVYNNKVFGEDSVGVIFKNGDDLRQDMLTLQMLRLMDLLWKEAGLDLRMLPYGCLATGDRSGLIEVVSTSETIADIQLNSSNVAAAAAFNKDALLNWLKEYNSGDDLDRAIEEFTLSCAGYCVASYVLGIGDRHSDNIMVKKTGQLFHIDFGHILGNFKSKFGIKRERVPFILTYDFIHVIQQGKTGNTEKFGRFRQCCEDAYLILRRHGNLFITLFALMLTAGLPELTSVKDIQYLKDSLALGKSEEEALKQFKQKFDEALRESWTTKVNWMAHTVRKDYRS
Sequence of CSNK1G1 (human) (Q9HCP0 whole entry, looked up): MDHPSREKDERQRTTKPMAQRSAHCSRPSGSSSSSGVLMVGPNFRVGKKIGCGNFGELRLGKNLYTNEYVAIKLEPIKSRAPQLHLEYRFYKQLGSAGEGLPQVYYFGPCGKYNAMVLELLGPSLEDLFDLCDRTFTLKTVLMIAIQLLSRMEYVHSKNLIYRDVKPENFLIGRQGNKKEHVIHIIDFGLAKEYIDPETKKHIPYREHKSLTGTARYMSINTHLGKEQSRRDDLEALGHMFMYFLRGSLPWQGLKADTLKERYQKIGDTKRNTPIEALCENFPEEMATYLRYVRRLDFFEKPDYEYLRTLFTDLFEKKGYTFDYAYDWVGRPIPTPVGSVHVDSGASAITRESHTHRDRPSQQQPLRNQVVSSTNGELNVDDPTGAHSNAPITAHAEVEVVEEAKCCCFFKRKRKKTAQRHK
Sequence of CSNK1D (human) (P48730 whole entry, looked up): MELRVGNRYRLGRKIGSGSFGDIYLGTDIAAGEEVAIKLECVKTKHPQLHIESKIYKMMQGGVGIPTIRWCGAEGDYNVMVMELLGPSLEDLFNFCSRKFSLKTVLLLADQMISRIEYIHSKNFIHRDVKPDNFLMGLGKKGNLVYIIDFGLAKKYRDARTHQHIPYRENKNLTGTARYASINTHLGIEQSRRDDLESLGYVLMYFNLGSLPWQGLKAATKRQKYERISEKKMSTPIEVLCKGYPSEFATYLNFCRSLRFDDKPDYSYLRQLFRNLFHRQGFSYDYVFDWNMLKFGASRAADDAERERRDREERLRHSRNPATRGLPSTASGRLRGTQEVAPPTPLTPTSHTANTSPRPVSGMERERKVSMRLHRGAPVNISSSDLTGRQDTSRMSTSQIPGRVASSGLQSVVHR
Sequence of TLK2 (human) (Q86UE8 whole entry, looked up): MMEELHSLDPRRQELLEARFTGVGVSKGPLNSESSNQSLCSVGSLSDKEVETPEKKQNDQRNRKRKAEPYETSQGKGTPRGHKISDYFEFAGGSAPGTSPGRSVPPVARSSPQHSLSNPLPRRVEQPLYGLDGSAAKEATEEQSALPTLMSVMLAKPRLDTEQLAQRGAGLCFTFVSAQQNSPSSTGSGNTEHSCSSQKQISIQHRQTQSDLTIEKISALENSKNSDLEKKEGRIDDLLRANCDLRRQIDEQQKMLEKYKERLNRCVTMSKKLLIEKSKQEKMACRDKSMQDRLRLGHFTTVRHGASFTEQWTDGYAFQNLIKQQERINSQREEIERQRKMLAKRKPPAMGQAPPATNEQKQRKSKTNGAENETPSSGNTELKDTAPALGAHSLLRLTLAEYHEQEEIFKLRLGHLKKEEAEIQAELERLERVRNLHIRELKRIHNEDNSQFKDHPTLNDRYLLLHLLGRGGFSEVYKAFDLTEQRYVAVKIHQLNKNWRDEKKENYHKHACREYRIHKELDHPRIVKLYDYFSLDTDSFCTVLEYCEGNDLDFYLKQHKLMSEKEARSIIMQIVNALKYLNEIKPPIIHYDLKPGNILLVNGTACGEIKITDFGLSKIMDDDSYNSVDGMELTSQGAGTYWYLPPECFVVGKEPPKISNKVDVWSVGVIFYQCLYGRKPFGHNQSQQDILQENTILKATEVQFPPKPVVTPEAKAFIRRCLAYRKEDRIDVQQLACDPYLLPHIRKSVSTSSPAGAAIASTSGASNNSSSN
Sequence of ADCK4 (human) (Q96D53 whole entry, looked up): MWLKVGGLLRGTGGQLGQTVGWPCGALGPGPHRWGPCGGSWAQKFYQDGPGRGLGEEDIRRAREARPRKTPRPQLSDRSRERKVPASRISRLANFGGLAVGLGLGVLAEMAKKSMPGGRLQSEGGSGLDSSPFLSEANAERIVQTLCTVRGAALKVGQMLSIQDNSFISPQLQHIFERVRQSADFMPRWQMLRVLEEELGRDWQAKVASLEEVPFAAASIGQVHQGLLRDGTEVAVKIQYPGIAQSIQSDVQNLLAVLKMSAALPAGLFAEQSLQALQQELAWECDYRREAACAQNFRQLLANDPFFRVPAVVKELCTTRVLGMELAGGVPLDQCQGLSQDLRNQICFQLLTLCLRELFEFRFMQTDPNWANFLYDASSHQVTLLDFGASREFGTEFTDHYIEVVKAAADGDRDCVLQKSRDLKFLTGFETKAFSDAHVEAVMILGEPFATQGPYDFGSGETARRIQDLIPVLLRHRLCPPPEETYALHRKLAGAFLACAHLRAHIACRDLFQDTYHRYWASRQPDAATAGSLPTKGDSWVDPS
Sequence of AURKB (human) (Q96GD4 whole entry, looked up): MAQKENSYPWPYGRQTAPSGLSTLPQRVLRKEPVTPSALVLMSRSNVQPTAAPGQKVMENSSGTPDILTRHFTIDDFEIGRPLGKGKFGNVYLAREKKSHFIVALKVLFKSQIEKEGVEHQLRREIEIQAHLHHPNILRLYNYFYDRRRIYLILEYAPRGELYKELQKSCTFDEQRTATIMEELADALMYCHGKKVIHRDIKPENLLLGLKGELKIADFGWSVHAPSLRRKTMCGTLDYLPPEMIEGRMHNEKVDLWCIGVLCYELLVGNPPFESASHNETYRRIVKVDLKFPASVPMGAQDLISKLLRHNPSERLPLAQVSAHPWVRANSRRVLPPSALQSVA
Sequence of PHKG1 (human) (Q16816 whole entry, looked up): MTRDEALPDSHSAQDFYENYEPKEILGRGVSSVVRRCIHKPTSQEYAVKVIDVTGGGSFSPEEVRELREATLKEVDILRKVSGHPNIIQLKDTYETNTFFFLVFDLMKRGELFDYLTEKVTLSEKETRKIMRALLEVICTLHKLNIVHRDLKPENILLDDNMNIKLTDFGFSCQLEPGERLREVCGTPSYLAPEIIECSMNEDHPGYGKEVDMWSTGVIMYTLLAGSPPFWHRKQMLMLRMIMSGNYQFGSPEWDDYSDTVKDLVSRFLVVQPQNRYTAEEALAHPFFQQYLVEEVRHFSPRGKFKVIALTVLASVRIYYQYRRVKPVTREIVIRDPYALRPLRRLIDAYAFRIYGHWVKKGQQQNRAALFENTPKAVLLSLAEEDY

## Cc1ccc(C(=O)Nc2cccc(C(F)(F)F)c2)cc1Nc1cncc(C(N)=O)c1
[1]
  kinase still bound, per cent of control: 100%
[2]
  kinase still bound, per cent of control: 100%
[3]
  kinase still bound, per cent of control: 100%
[4]
  kinase still bound, per cent of control: 100%
[5]
  kinase still bound, per cent of control: 100%
[6]
  kinase still bound, per cent of control: 100%
[7]
  kinase still bound, per cent of control: 100%
[8]
  kinase still bound, per cent of control: 100%
[9]
  kinase still bound, per cent of control: 100%
[10]
  kinase still bound, per cent of control: 100%
[11]
  kinase still bound, per cent of control: 100%
[12]
  kinase still bound, per cent of control: 100%
[13]
  kinase still bound, per cent of control: 100%
[14]
  kinase still bound, per cent of control: 0.35%
[15]
  kinase still bound, per cent of control: 100%
[16]
  kinase still bound, per cent of control: 100%
[17]
  kinase still bound, per cent of control: 100%
[18]
  kinase still bound, per cent of control: 9.4%
[19]
  kinase still bound, per cent of control: 100%
[20]
  kinase still bound, per cent of control: 100%
[21]
  kinase still bound, per cent of control: 6.9%
[22]
  kinase still bound, per cent of control: 100%
[23]
  kinase still bound, per cent of control: 100%
[24]
  kinase still bound, per cent of control: 100%
[25]
  kinase still bound, per cent of control: 100%
[26]
  kinase still bound, per cent of control: 100%
[27]
  kinase still bound, per cent of control: 0.2%
[28]
  kinase still bound, per cent of control: 100%
[29]
  kinase still bound, per cent of control: 100%
[30]
  kinase still bound, per cent of control: 100%
[31]
  kinase still bound, per cent of control: 100%
[32]
  kinase still bound, per cent of control: 100%
[33]
  kinase still bound, per cent of control: 100%
[34]
  kinase still bound, per cent of control: 100%
[35]
  kinase still bound, per cent of control: 100%
[36]
  kinase still bound, per cent of control: 100%
[37]
  kinase still bound, per cent of control: 100%
[38]
  kinase still bound, per cent of control: 100%
[39]
  kinase still bound, per cent of control: 100%
[40]
  kinase still bound, per cent of control: 100%

## CCN1CCN(Cc2ccc(Nc3ncc4c(n3)N(C)c3ccccc3C(=O)N4C)cc2C(F)(F)F)CC1
[1]
  kinase still bound, per cent of control: 52%
[2]
  kinase still bound, per cent of control: 29%
[3]
  kinase still bound, per cent of control: 57%
[4]
  kinase still bound, per cent of control: 18%
[5]
  kinase still bound, per cent of control: 0.95%
[6]
  kinase still bound, per cent of control: 47%
[7]
  kinase still bound, per cent of control: 100%
[8]
  kinase still bound, per cent of control: 92%
[9]
  kinase still bound, per cent of control: 4%
[10]
  kinase still bound, per cent of control: 32%
[11]
  kinase still bound, per cent of control: 7.6%
[12]
  kinase still bound, per cent of control: 65%
[13]
  kinase still bound, per cent of control: 1.3%
[14]
  kinase still bound, per cent of control: 100%
[15]
  kinase still bound, per cent of control: 100%
[16]
  kinase still bound, per cent of control: 0%
[17]
  kinase still bound, per cent of control: 100%
[18]
  kinase still bound, per cent of control: 61%
[19]
  kinase still bound, per cent of control: 84%
[20]
  kinase still bound, per cent of control: 81%
[21]
  kinase still bound, per cent of control: 65%
[22]
  kinase still bound, per cent of control: 88%
[23]
  kinase still bound, per cent of control: 66%
[24]
  kinase still bound, per cent of control: 72%
[25]
  kinase still bound, per cent of control: 3%
[26]
  kinase still bound, per cent of control: 78%
[27]
  kinase still bound, per cent of control: 100%
[28]
  kinase still bound, per cent of control: 100%
[29]
  kinase still bound, per cent of control: 47%
[30]
  kinase still bound, per cent of control: 68%
[31]
  kinase still bound, per cent of control: 27%
[32]
  kinase still bound, per cent of control: 100%
[33]
  kinase still bound, per cent of control: 96%
[34]
  kinase still bound, per cent of control: 2.4%
[35]
  kinase still bound, per cent of control: 38%
[36]
  kinase still bound, per cent of control: 16%
[37]
  kinase still bound, per cent of control: 47%
[38]
  kinase still bound, per cent of control: 81%
[39]
  kinase still bound, per cent of control: 89%
[40]
  kinase still bound, per cent of control: 0%
